Here are results for eight compounds from patent publication US20140314686A1, “POLYPHENOL/FLAVONOID COMPOSITIONS AND METHODS OF FORMULATING ORAL HYGIENIC PRODUCTS” (API Genesis, LLC, priority 2013, published 2014).

Each structure is given as a SMILES string. ≈ marks a conversion by molar mass, not a printed value.

Data set [1] is described as follows: Stability of soluble flavone sodium salts in bicarbonate/peroxide dentifrice. The following applies: dentifrice with sodium bicarbonate, peroxide and peroxide stabilizer, pH ~10-10.5. In kind it is physicochemical. As to the method: It was experimentally determined that the toothpaste formulations containing both sodium bicarbonate and sodium carbonate peroxide together with stabilizing polymer formulations had pHs of ˜10-10.5. When aglycone flavone (i.e., apigenin and luteolin) powders were added to dentifrices including sodium bicarbonate, sodium bicarbonate peroxide and a peroxide stabilizer, it was also determined that soluble flavone sodium salts were formed that were stable in these highly oxidative peroxide compositions. The presence of stable soluble alkali metal flavone salts with highly anti-oxidant and anti-inflammatory properties in an emulsion formulation was totally unanticipated since aglycone flavones are prone to oxidative decomposition.

Data set [2] in a line: Solubility in PS80 via the thermal processing method (polyphenol/surfactant concentrate). The following applies: for PS80 Solution Temp.: temperature of complete solubilization in PS80; for solubility: 20 °C, organic solvent or mixture. As to the method:
The molar ratio of active agent (polyphenol) to solubilizing agent (surfactant) is typically 1:2 to 1:5, and at times much greater, e.g. 1:2 to 1:20 depending on the active agent/surfactant combination.
Apigenin/Polysorbate 80 (PS80) formulations can be made as follows: • Apigenin powder and PS80 are mixed in the ratio from about 5 to 10 wt. % of apigenin to 95 to 90 wt. % PS80.
All solubility tests were conducted with 20 ml of PS80 contained within 80 ml Pyrex glass beakers.

Data set [3] in a line: EGCG retention in saliva after brushing with alkaline EGCG toothpaste (colour on alkalizing). The conditions noted are these: PeroxiCare toothpaste with 0.1 wt. % EGCG and 0.1 wt. % ascorbic acid, saliva after brushing and rinsing. Format: in vivo, human.
Description: A saliva sample with an EGCG containing alkaline toothpaste was obtained (1) before brushing and (2) 1 minute after brushing immediately after rinsing. The subject brushed for 2 minutes using the sulcular brushing technique with ˜1.8 gm toothpaste on a toothbrush. […] A 5 ml sample of saliva was collected 10 minutes prior to brushing. Tooth brushing was conducted for 2 minutes with 1.8 gm of toothpaste applied to the brush. One minute after brushing, the oral cavity was rinsed with 50 ml of water. Following rinsing, about 8 ml of saliva was collected. The pH of the saliva was measured. In addition, the saliva samples were further made alkaline with the addition of NaOH crystals and the color of the resulting sample noted.
A short description of data set [4]: Solubilization in Listerine mouth rinse via sodium salt and pH adjustment. In kind it is physicochemical. As to the method:
100 grams of the Listerine® Resveratrol Containing Mouth Rinse formulation was prepared as follows: • 1. 98.4 grams of the Listerine® caramel colored mouth rinse was added to a 300 ml Pyrex glass beaker. […] About 0.2 grams of fine NaOH crystals were added to the mixture from Step 2 and thoroughly mixed. A uniformly caramel colored blend resulted with a measured pH of ˜10. […] The pH the mixture from Step 3 was adjusted to a pH 6.5 by the addition of about 0.2 grams of citric acid crystals. […] • 1. 98.6 grams of the Listerine® caramel colored mouthrinse was added to a 300 ml Pyrex glass beaker. […] About 0.2 grams of fine NaOH crystals were added to the mixture from Step 2 and thoroughly mixed. A uniformly caramel colored blend resulted with a measured pH of ˜10. […] The pH the mixture from Step 2 was adjusted to a pH 8 by the addition of about 0.2 grams of citric acid crystals.

Data set [5] is described as follows: pH required for a stable aqueous microemulsion with nonionic surfactants. In kind it is physicochemical. The conditions noted are these: nonionic surfactants Polysorbate 80 and Cremophor RH40. The source says: In one embodiment, a flavonoid/polyphenol microemulsion can be made as follows: • The mixing of a flavonoid/polyphenol with an alkali metal component (e.g., alkali metal hydroxide(s) and/or alkaline metal salt(s)) to form an alkali metal flavonoid/polyphenol salt within an aqueous solution. • Adding a surfactant in the ratio from about 5 to 20 wt. % of the flavonoid/polyphenol to 95 to 80 wt. % of a surfactant; preferable a nonionic surfactant. • This mixture is thoroughly stirred to form a uniform clear solution. • Adjusting (e.g., acidifying) the alkali metal flavonoid/polyphenol salt with an agent (e.g., an acidic agent such as acetic acid and/or hydrochloric acid) to a pH level required to form a clear and stable microemulsion.
Stable microemulsions with apigenin and the nonionic surfactants, Polysorbate 80 and Cremophor RH40, were achieved provided a pH level of 8.0 to 8.5 was maintained. For luteolin, it as determined that a pH of 7 was required to maintain a stable aqueous microemulsion; and for resveratrol, a pH of >4.5 to 7.5.

For `O=c1cc(-c2ccc(O)cc2)oc2cc(O)cc(O)c12` [Apigenin, 4′,5,7,-trihydroxyflavone], the “stability of soluble flavone sodium salt in oxidative peroxide composition” value in data set [1] is given as “stable”. Also, the “concentration of stable concentrate in PS80” value in data set [2] (5.0 wt. % in PS80, heated approaching 300 degree C, cooled to ambient) came out at 50 mg/mL.

`O.Oc1cc(O)c2c(c1)O[C@H](c1ccc(O)c(O)c1)[C@@H](O)C2` [Catechin]: the “PS80 Solubility” value in data set [2] (at 20° C., 20 ml PS80, not the maximum solubility levels in PS80) was 50 mg/mL. In addition, the “PS80 Solution Temp.” value in data set [2] is roughly 210 °C. Besides, the “Water Solubility” value in “Solubility in water” (at 20° C.) is roughly 5 mg/mL.

Regarding `O=c1cc(-c2ccccc2)oc2cc(O)cc(O)c12` [Chrysin], the solubility in data set [2] (Polysorbate 80 (PS80)) was 50 mg/mL; in “Solubility in water” (water, 20 °C), 80 µg/mL (≈ 315 µM). For the same compound, in data set [2], the “PS80 Solution Temp.” value is roughly 140 °C.

Regarding `O=C(O[C@@H]1Cc2c(O)cc(O)cc2O[C@@H]1c1cc(O)c(O)c(O)c1)c1cc(O)c(O)c(O)c1` [Epigallocatechin Gallate (EGCG), Epigallocatechin gallate], the solubility in data set [2] (Polysorbate 80 (PS80)) is 50 mg/mL; in “Solubility in water” (water, 20 °C) it was roughly 25000 µg/mL (≈ 54500 µM). The “PS80 Solution Temp.” value in data set [2] is roughly 150 °C. Further, the “retention in saliva (red/brown color on alkalizing saliva to pH ~10.5)” value in data set [3] is reported as “retained”.

With `O=c1c(-c2ccc(O)cc2)coc2cc(O)cc(O)c12` [Genistein], in data set [2], the solubility is 50 mg/mL and the “PS80 Solution Temp.” value is roughly 220 °C. The concentration in solution in “Solubility in water” (20 °C, water) (solubility) was 120 µg/mL (≈ 444 µM).

With `O=c1cc(-c2ccc(O)c(O)c2)oc2cc(O)cc(O)c12` [Luteolin, 3′,4′,5,7-tetrahydroxyflavone], in data set [4] (NaOH to pH ~10, citric acid to pH 8), the “concentration in transparent solution” value was found to be 1.5 mg/mL. The “stability of soluble flavone sodium salt in oxidative peroxide composition” value in data set [1] is given as “stable”. Also, the “pH level for a stable aqueous microemulsion” value in data set [5] is 7.

As to `O=C1C[C@@H](c2ccc(O)cc2)Oc2cc(O)cc(O)c21` [Naringenin], the solubility was determined as 50 mg/mL in data set [2] (Polysorbate 80 (PS80)) and 40 µg/mL (≈ 147 µM) in “Solubility in water” (water, 20 °C). Further, in data set [2], the “PS80 Solution Temp.” value is roughly 280 °C.

As to `Oc1ccc(C=Cc2cc(O)cc(O)c2)cc1` [Resveratrol, resveratrol], the “concentration in transparent solution” value in data set [4] (NaOH to pH ~10, citric acid to pH 6.5) was found to be 1.2 mg/mL.

Broadly, the solubility is the dissolved amount per volume that the medium holds.
